From ChEMBL document CHEMBL1130055, “Discovery of a novel class of selective non-peptide antagonists for the human neurokinin-3 receptor. 1. Identification of the 4-quinolinecarboxamide framework” (J Med Chem, 1997)

Molecular target: T1, Substance-K receptor (Homo sapiens, UniProt P21452)
T1 sequence (P21452 whole entry): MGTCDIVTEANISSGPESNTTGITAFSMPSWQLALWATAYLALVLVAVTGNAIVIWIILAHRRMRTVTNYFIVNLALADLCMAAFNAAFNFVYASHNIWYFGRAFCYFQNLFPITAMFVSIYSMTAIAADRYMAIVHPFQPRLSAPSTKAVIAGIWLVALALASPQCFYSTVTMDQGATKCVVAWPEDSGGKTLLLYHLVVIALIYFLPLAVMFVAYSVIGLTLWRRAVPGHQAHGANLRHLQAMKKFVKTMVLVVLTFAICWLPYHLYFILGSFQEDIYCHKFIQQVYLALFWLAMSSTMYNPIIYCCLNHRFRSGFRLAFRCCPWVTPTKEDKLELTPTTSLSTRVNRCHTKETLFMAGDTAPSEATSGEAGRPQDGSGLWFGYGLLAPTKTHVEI
Experiment: Inhibition of [125I]neurokinin A (NKA) binding in human Tachykinin receptor 2 of chinese hamster ovary (hNK-2-CHO) cell membranes.

SMILES	Ki
COC(=O)[C@@H](NC(=O)c1cc(-c2ccccc2)nc2ccccc12)c1ccccc1	8.33 µM
COC(=O)[C@H](NC(=O)c1cc(-c2ccccc2)nc2ccccc12)c1ccccc1	1.22 µM
